Consider three molecules from ChEMBL document CHEMBL4680351, “Antimicrobial and cytotoxic effects of ammonium derivatives of diterpenoids steviol and isosteviol” (Bioorg Med Chem, 2021).

Data set [1] is described as follows: Hemolytic activity against human erythrocytes after 1 hr by digital photoelectric colorimetric method. The format is ADME, cell-based, Erythrocyte.
The test system of data set [2] is Staphylococcus aureus. As to the kind of experiment: Antibacterial activity against Staphylococcus aureus MRSA-1 assessed as bacterial growth inhibition in Mueller-Hinton broth 2 measured every 24 hrs for 5 days by serial dilution method. Conditions: MRSA-1, 120 h, time 5 day. The class given is functional.
Data set [3] concerns Staphylococcus aureus. As to the kind of experiment: Antibacterial activity against Staphylococcus aureus MRSA-2 assessed as bacterial growth inhibition in Mueller-Hinton broth 2 measured every 24 hrs for 5 days by serial dilution method. The class given is functional. Particulars: MRSA-2, 120 h, time 5 day.
Data set [4] deals with Staphylococcus aureus. As to the kind of experiment: Antibacterial activity against Staphylococcus aureus 209P assessed as bacterial growth inhibition in Mueller-Hinton broth 2 measured every 24 hrs for 5 days by serial dilution method. The format is functional. Particulars: 120 h, time 5 day.
In data set [5] the test system is Staphylococcus aureus. As to the kind of experiment: Bactericidal activity against Staphylococcus aureus MRSA-1 measured every 24 hrs for 5 days by serial dilution method. The format is functional. Conditions: MRSA-1, 120 h, time 5 day.
In data set [6] the test system is Staphylococcus aureus. As to the kind of experiment: Bactericidal activity against Staphylococcus aureus MRSA-2 measured every 24 hrs for 5 days by serial dilution method. The class given is functional. Conditions: MRSA-2, 120 h, time 5 day.
The subject of data set [7] is Staphylococcus aureus. As to the kind of experiment: Bactericidal activity against Staphylococcus aureus 209P measured every 24 hrs for 5 days by serial dilution method. Conditions: 120 h, time 5 day. The class given is functional.
The subject of data set [8] is Staphylococcus aureus. As to the kind of experiment: Antibacterial activity against Staphylococcus aureus 209P assessed as bacterial growth inhibition. The format is functional.
For data set [9], the system named is HeLa. As to the kind of experiment: Cytotoxicity against human HeLa cells assessed as reduction in cell viability by DAPI staining based assay.
In data set [10] the test system is MCF7. As to the kind of experiment: Cytotoxicity against human MCF7 cells assessed as reduction in cell viability by DAPI staining based assay. The format is functional.
Data set [11] has as its system A549. As to the kind of experiment: Cytotoxicity against human A549 cells assessed as reduction in cell viability by DAPI staining based assay.
Data set [12] deals with HepG2. As to the kind of experiment: Cytotoxicity against human HepG2 cells assessed as reduction in cell viability by DAPI staining based assay.
The test system of data set [13] is PC-3. As to the kind of experiment: Cytotoxicity against human PC-3 cells assessed as reduction in cell viability by DAPI staining based assay.
Data set [14] relates to T98G. As to the kind of experiment: Cytotoxicity against human T98G cells assessed as reduction in cell viability by DAPI staining based assay.
Data set [15] deals with WI-38. As to the kind of experiment: Cytotoxicity against human WI-38 cells assessed as reduction in cell viability by DAPI staining based assay.

As a reminder, the HC50 is the concentration giving 50% haemolysis. Read a low HC50 as stronger haemolysis. The MIC is the lowest concentration that inhibits growth of the organism. Usually MBC stands for the smallest concentration meeting the test's criterion for killing. Low readings indicate greater bactericidal potency, high ones weaker bactericidal potency. Broadly, the IC50 is the concentration that gives 50% inhibition.

Molecules are shown by their SMILES. Values after ≈ are worked out from the molar mass of the structure shown. Non-standard residues stand in square brackets, D forms with d. Residues, ends and D or L forms follow the SMILES beside them. Orn = NCCC[C@H](N)C(=O)O

As to `CC(C)C[C@@H]1NC(=O)[C@H](CCCN)NC(=O)[C@H](C(C)C)NC(=O)[C@@H]2CCCN2C(=O)[C@@H](Cc2ccccc2)NC(=O)[C@H](CC(C)C)NC(=O)[C@H](CCCN)NC(=O)[C@H](C(C)C)NC(=O)[C@@H]2CCCN2C(=O)[C@@H](Cc2ccccc2)NC1=O` [GRAMICIDIN S] (cyclo(L[dF]PV[Orn]L[dF]PV[Orn])), in data set [1], the 50% haemolytic concentration (HC50) at 1 h is 9.4 µM.
On to `O=C(O)c1cn(C2CC2)c2cc(N3CCNCC3)c(F)cc2c1=O` [CIPROFLOXACIN], for which the values for the MIC in data set [2], in [3] and in data set [4] were 377 µM (≈ 125 µg/mL), 2.7 µM (≈ 0.895 µg/mL) and 1.5 µM (≈ 0.497 µg/mL), respectively. For the same molecule, the MBC is 755 µM (≈ 250 µg/mL) in data set [5], 2.7 µM (≈ 0.895 µg/mL) in data set [6] and 1.5 µM (≈ 0.497 µg/mL) in data set [7].
`C[C@@]12CC[C@@H]3[C@@](CC[C@H]4[C@@]3(C)CCC[C@@]4(C)C(=O)OCC[N+](C)(C)Cc3ccccc3)(CC1=O)C2`: the MIC worked out at 223 µM in data set [2], 112 µM in [3] and 55.8 µM in [8]. Besides, the MBC in [5] is 223 µM; in [6] it was 112 µM; in [7] it was 55.8 µM. Also, the 50% haemolytic concentration (HC50) at 1 h in data set [1] was greater than 100 µM. For the same molecule, the half-inhibitory concentration (IC50) in [9], in [10], in data set [11], in [12], in [13] and in data set [14] was greater than 100 µM throughout. Further, the IC50 in [15] was greater than 100 µM.
